Reference: US8877766B2, “Neuroprotective multifunctional antioxidants and their monofunctional analogs” (priority 2013, dated 2014)

Legend:
[1] = tested on: SH-SY5Y neuroblastoma cells; test: Cell viability study, MTS Cell Titer 96 Aqueous One Solution assay; conditions: 1 mM compound in 0.16% DMSO
Description: (§5) The in vitro cell viability studies were conducted as previously described using SH-SY5Y neuroblastoma cells (ATCC) and cultured according to ATCC procedures in 1:1 Eagles minimum essential medium with Earle's balanced salt solution and Ham's F12 (EMEM-F12) media containing (10% fetal bovine serum (FBS)) at 37° C. under a 5% CO2 atmosphere. Cell viability studies were conducted over a 24 hour period in 96-well plates using the Cell Titer 96® Aqueous One Solution Cell Proliferation Assay (MTS, Promega, Madison, Wis.) with 1 mM of each compound or clioquinol (PBT1) dissolved in 0.16% DMSO. […] This is a colorimetric method for determining the number of viable cells in proliferation or cytotoxicity assays where the One Solution contains MTS (3-(4,5-dimethylthiazol-2-yl)-5-(3-carboxymethoxyphenyl)-2-(4-sulfophenyl)-2H-tetrazolium), in the presence of phenazine methosulfate (PMS). The MTS compound is bioreduced by cells into a colored formazan product and, as measured by the amount of 490 nm absorbance, is directly proportional to the number of living cells in culture. […] The protective effect of these compounds against H2O2 and hydroxyl radical generated by the Fenton reaction were examined.

[2] = tested on: SH-SY5Y neuroblastoma cells; test: Superoxide assay, MitoSOX Red, xanthine oxidase generated superoxide; type: cell-based, human; conditions: xanthine oxidase 25 mU/mL
Description: The ability of the HK series of multifunctional and monofunctional antioxidant compounds to specifically reduce superoxide radicals in live cells was assessed in both SH-SY5Y neuroblastoma cells and ARPE-19 retinal pigmented epithelial cells. The production of superoxide by mitochondria was visualized with fluorescence microscopy using the MitoSOX™ Red reagent (Invitrogen Life Sciences, Grand Island, N.Y.), which permeates live cells, where it selectively targets mitochondria. It is rapidly oxidized by superoxide, but not by other reactive oxygen species (ROS) and reactive nitrogen species (RNS). The oxidized product is highly fluorescent upon binding to nucleic acid. […] The cell media was then removed from each well, and the wells were washed with PBS. Compounds (HK series and JHX series and antioxidant standards (Hydroquinone (HQ), Trolox (T), Vitamin E (VE), Vitamin C (VC)) dissolved in DMSO (10 μL) were then added to each well, along with fresh media (140 μL) without serum albumin (FBS). Superoxide dismutase (SOD, 500 μg/mL, 10 μL) was used as an additional control, and cells in all groups (controls, drug treated, and SOD treated groups) were exposed to the same amounts of DMSO. After addition, the cells were incubated at 37° C. under a 5% CO2 atmosphere for 1 hr. Xanthine oxidase (XO), was then added (25 mU/mL) to generate approximately 100 μM superoxide, and culture continued for an additional hour. The media was then again removed, and the cells were washed with PBS. Finally, the cells were stained with 100 μL of the MitoSOX Red reagent (5 μM), and 2 hr after further incubation, the fluorescence of each well was measured using fluorescent microplate reader at Ex/Em=510/580 nm.

[3] = tested on: SH-SY5Y neuroblastoma cells; test: LIVE/DEAD Viability/Cytotoxicity Assay, hydroxyl radical (Fenton reagent) induced cell death; type: cell-based, human; conditions: 2 hours exposure to Fenton reagent
Description: (§1) The ability of the HK series of multifunctional antioxidant compounds to specifically protect against hydroxyl radical-induced cell death was assessed in both SH-SY5Y neuroblastoma cells and ARPE-19 retinal pigmented epithelial cells using the LIVE/DEAD® Viability/Cytotoxicity Assay (Invitrogen Life Sciences, Grand Island, N.Y.). The cells were seeded into 96-well plates and grown in standard media (1:1 EMEM-F12 media containing 10% FBS for the human SH-SY5Y neuroblastoma cells, or DMEM containing 4% FBS for the human ARPE-19 retinal pigmented epithelial cells), at 37° C. under a 5% CO2 atmosphere until 80% confluence was achieved (ca. 24 hr). The media was then removed, and the cells were washed with PBS. Compounds (HK series and JHX series or antioxidant standards (Hydroquinone (HQ), Trolox (T), Vitamin E (VE), Vitamin C (VC)) dissolved in DMSO (10 μL) were again added to the cells, along with the appropriate media without FPS. Following a 1 hr incubation at 37° C. under a 5% CO2 atmosphere, Fenton reagents (Fe^2+ and hydrogen peroxide dissolved in appropriate media without FBS to give a final concentration of 100 μM) were added to each well, and incubation continued. After 2 hr of incubation with Fenton reagent, the media was removed and the cells were washed with PBS. The cells were stained with 100 μL of the LIVE/DEAD reagent containing calcein AM (AM, 8 μM for NB) and ethidium homodimer-1 (EthD-1, 16 μM for NB) for 1 hr at 37° C. The fluorescence of each well was measured using a fluorescent microplate reader at Ex/Em=494/517 nm (Fsam for LIVE Cells) and Ex/Em=528/617 nm (Fsam for DEAD Cells). The fluorescence of control samples was also measured as follows: Fmax for LIVE Cells (The fluorescence at Ex/Em=494/517 nm in live cells samples labeled with AM only); Fmin for LIVE Cells (The fluorescence at Ex/Em=494/517 nm in live cells samples labeled with EthD-1 only); Fmax for DEAD Cells (The fluorescence at Ex/Em=528/617 nm in dead cells samples labeled with EthD-1 only); Fmin for DEAD Cells (The fluorescence at Ex/Em=528/617 nm in dead cells samples labeled with AM only); Blank 494/517 (The fluorescence at Ex/Em=494/517 nm without dye and cells); Blank 528/617 (The fluorescence at Ex/Em=528/617 nm without dye and cells). For the dead cells control, the cells were incubated with 70% of ethanol for 30 min at 37° C. The percentage of live cells was calculated from the fluorescence readings using the equation
(§2) [formula] The percentage of dead cells was calculated from the fluorescence readings using the equation: […]

[4] = tested on: ARPE-19 retinal pigmented epithelial cells; test: as above; type: cell-based, human; conditions: ARPE-19, 2 hours exposure to Fenton reagent
Description: as §1, §2

[5] = tested on: SH-SY5Y neuroblastoma cells; test: Mitochondrial viability/toxicity, rhodamine 123 staining with or without MnCl2; type: cell-based, human; conditions: 1 mM drug, 1 mM MnCl2
Description: The laser dye rhodamine 123 is shown to be a specific probe for the localization of mitochondria in living cells. Because of its selectivity for mitochondria, this stain can be used to probe alterations in mitochondria induced by drugs. Therefore, studies were conducted to determine whether MFAOs can adversely alter mitochondrial function through their ability chelate transition metals.
Human SH-SY5Y neuroblastoma cells were seeded into 8-well microscope plates (BD Falcon, 800μ-slides), and the cells were incubated in EMEM-F12 media containing 10% FBS at 37° C. under a 5% CO2 atmosphere. Once the cells were approximately 80% confluent in each well, the media was removed and the cells were washed with PBS. The cells were then pre-incubated for 1 hour at 37° C. under a 5% CO2 atmosphere with 200 μL of HBSS medium without FBS containing drug JHX-1, -4, -5, -8, HK-2, -4, -9, -11, or Clioquinol dissolved in DMSO, so that final drug concentrations of 1 mM in 4% DMSO were achieved. Then MnCl2 was added to the appropriate cells groups to give a final concentration of 1 mM, and the groups were cultured for an additional 2 hours. After the […] exposure to manganese, the media was removed and the cells were washed with PBS. The cells were then stained with 100 μL of the fluorescent dye rhodamine 123 (Rh123) (20 μM) and Hoechst 33342 (8 μM) per well at 37° C., 5% CO2 for 30 min. […]

[6] = tested on: ARPE-19 RPE cells; test: as above; type: cell-based, human; conditions: ARPE-19, 1 mM drug, 1 mM MnCl2
[7] = tested on: SH-SY5Y neuroblastoma cells; test: Zinquin analysis of cellular labile zinc after exposure to Aβ1-42/Zn complex; type: cell-based, human; conditions: 10 μM drug
Description: (§3) The ability of MFAOs to release zinc from amyloid beta/zinc complex was investigated using […] from American Peptide Company, Inc. (Vista, Calif.). The Aβ1-42/Zn complex was prepared as follow. ZnSO4 solution (200 μM) and Aβ1-42 (200 μM) were mixed together and incubated at 37° C. After 48 hr incubation, the mixture was centrifuged at 14000×g, 3 min to pellet the aggregated Aβ1-42. The aggregated Aβ1-42 was then resuspended in water or 200 μM of drugs. The complex was diluted with Hank's Balanced Saline Solution (HBSS) to give a final 10 μM concentration for each component. This complex was then used in the following studies employing human SH-SY5Y neuroblastoma and ARPE-19 pigmented epithelial cells. The studies were repeated 2-4 times.
(§4) Human SH-SY5Y neuroblastoma cells were seeded into 8-well microscope plates (BD Falcon, 800μ-slides), and the cells were incubated in EMEM-F12 media containing 10% FBS at 37° C. under a 5% CO2 atmosphere. Once the cells were approximately 80% confluent in each well, the media was removed, and the cells were washed with phosphate buffered saline (PBS). […] The zinquin fluorescence was then measured in the fixed cells by confocal fluorescence microscopy using a DAPI (4′,6-diamidino-2-phenylindole) DAPI filter set to assess the cellular compartmentalization of zinc. […]

[8] = tested on: ARPE-19 retinal pigmented epithelial cells; test: as above; type: cell-based, human; conditions: ARPE-19, 10 μM drug
Description: as §3, §4

[9] = tested on: SH-SY5Y neuroblastoma cells; test: Protective effect against H2O2 and Fenton-generated hydroxyl radical, MTS cell viability; type: cell-based, human; conditions: versus DMSO control
Description: as §5

| SMILES | decrease in 24 hr cell viability compared to DMSO treated cells [1] | reduction of superoxide radical [2] | further results |
| --- | --- | --- | --- |
| O=C1CCC(=O)N1c1ncc(O)cn1 [HK-2, 1-(5-hydroxy-2-pyrimidyl)pyrrolidine-2,5-dione] | approximately 20% |  |  |
| Cc1c(C)c2c(c(C)c1O)CCC(C)(C(=O)O)O2 (centres unmarked) [Trolox, reference compound] | approximately 20% |  |  |
| c1cnc(N2CCCC2)nc1 [HK-9, 2-(pyrrolidine-1-yl)pyrimidine] |  | no effect | protection against hydroxyl radicals (live/dead cells) [3]: no effect |
| Oc1cnc(N2CCCC2)nc1 [HK-10, 5-hydroxy-2-(pyrrolidine-1-yl)pyrimidine] |  | demonstrated protection | protection against hydroxyl radical (live/dead cells) [4]: dose-dependent protection |
| Oc1c(I)cc(Cl)c2cccnc12 [clioquinol] | 50% |  | loss of rhodamine 123 staining after MnCl2 [5]: not observed; loss of rhodamine 123 staining after MnCl2 [6]: not observed; labile zinc (zinquin staining) in presence of aggregated Aβ1-42/Zn complex [7]: maintain labile zinc levels; labile zinc (zinquin staining) in presence of aggregated Aβ1-42/Zn complex [8]: maintain labile zinc levels; cell viability in the Fenton reaction [9]: lower than DMSO control |
| COc1nc(N2C(=O)CCCC2=O)nc(OC)c1O [HK-8, 1-(4,6-dimethoxy-5-hydroxy-2-pyrimidyl)piperidine-2,6-dione] | 30% |  |  |
| O=C1CCCC(=O)N1c1ncc(O)cn1 [HK-6, 1-(5-hydroxy-2-pyrimidyl)piperidine-2,6-dione] | approximately 20% |  |  |
| O=C1CCCC(=O)N1c1ncccn1 [HK-5, 1-(2-pyrimidyl)piperidine-2,6-dione] |  | did not |  |
| COc1cc(OC)nc(N2CCCC2)n1 [HK-11, 4,6-dimethoxy-2-(pyrrolidine-1-yl)pyrimidine] |  | no effect | protection against hydroxyl radicals (live/dead cells) [3]: no effect |
| Oc1cnc(N2CCCCC2)nc1 [HK-14, 5-hydroxy-2-(piperidine-1-yl)pyrimidine] |  | demonstrated protection | protection against hydroxyl radical (live/dead cells) [4]: dose-dependent protection |
| O=C1CCC(=O)N1c1ncccn1 [HK-1, 1-(2-pyrimidyl)pyrrolidine-2,5-dione] |  | did not |  |
| COc1nc(N2CCCC2)nc(OC)c1O [HK-12, 5-hydroxy-4,6-dimethoxy-2-(pyrrolidine-1-yl)pyrimidine] |  | demonstrated protection | protection against hydroxyl radical (live/dead cells) [4]: dose-dependent protection |
| COc1cc(OC)nc(N2C(=O)CCC2=O)n1 [HK-3, 1-(4,6-dimethoxy-2-pyrimidyl)pyrrolidine-2,5-dione] |  | did not |  |
| COc1nc(N2CCCCC2)nc(OC)c1O [HK-16, 5-hydroxy-4,6-dimethoxy-2-(piperidine-1-yl)pyrimidine] |  | demonstrated protection | protection against hydroxyl radical (live/dead cells) [4]: dose-dependent protection |
| COc1cc(OC)nc(N2C(=O)CCCC2=O)n1 [HK-7, 1-(4,6-dimethoxy-2-pyrimidyl)piperidine-2,6-dione] |  | did not |  |
